Where a name gives a salt, the structure may show the parent alone.
System: spiral strips of the pulmonary artery of the guinea-pig
Experiment: Relaxation of potassium-depolarised, CaCl2-contracted pulmonary artery spiral strips (modified method of Godfraind and Kaba and of Schuman et al.)
Details: for IC50: Cavia porcellus, 40 mmol/l potassium depolarised, contraction induced by 0.5 mmol/l CaCl2, cumulative addition in 1/2 log 10 steps, average of 4 to 6 vessel strips, read-out: IC50 (concentration of the test substance which inhibits the contraction by 50%); for Duration of action: time needed after addition of the test substance until the starting value is obtained again
Experimental: The pharmacological action of the compounds of the formula I was determined by a modified method of Godfraind and Kaba (Arch. Int. Pharmacodyn. Ther. 196, (Suppl) 35 to 49, 1972) and of Schuman et al. (Naunyn-Schmiedeberg,s Arch. Pharmacol. 289, 409 to 418, 1975). In this connection, spiral strips of the pulmonary artery of the guinea-pig are depolarised with 40 mmol/1 of potassium after equilibration in calcium-free Tyrode solution. An addition of 0.5 mmol/1 of CaCl2 then induces a contraction. The relaxing action of the test substance is determined by cumulative addition in 1/2 log 10 stepped concentrations. From the concentration-effect curve (abscissa: -log mol/1 of test substance, ordinate: % inhibition of the maximum contraction, average value of 4 to 6 vessel strips), the concentration of the test substance is determined which inhibits the contraction by 50% (=IC50, mol/1). The duration of action of the test substance is given by the time which is needed after the addition of the test substance until the starting value is obtained again. […] On the other hand, the similarly active compound SIN-1 is clearly surpassed by the compounds according to the invention with respect to its duration of action.

Row | SMILES | IC50 [nM] | Duration of action [min]
1 | CC(C)C(=O)N=c1c[n+](N2CCN(S(C)(=O)=O)CC2(C)C)[n-]o1 [CH3, drawing 12] | 3000 | 210
2 | CC1(C)CN(S(C)(=O)=O)CCN1[n+]1cc(=N)o[n-]1.Cl [Example 1, 3-(2,2-Dimethyl-4-methanesulphonylpiperazin-1-yl)sydnone imine hydrochloride] | 1900 | 200
3 | Cc1ccc(S(=O)(=O)N2CCN([n+]3cc(=N)o[n-]3)C(C)(C)C2)cc1.Cl [Example 2, 3-(2,2-Dimethyl-4-tosylpiperazin-1-yl)sydnone imine hydrochloride] | 650 | 220
4 | CN(C)S(=O)(=O)N1CCN([n+]2cc(=N)o[n-]2)C(C)(C)C1 [Example 3, 3-(2,2-Dimethyl-4-dimthylaminosulphonylpiperazin-1-yl)sydnone imine hydrochloride] | 2500 | 200
5 | CCOC(=O)[N-]c1cn(N2CCOCC2)n[o+]1 [Molsidomine, NEthoxycarbonyl-3-morpholinosydnone imine, reference compound] | 300000 | 100
6 | Cl.N=c1c[n+](N2CCOCC2)[n-]o1 [SIN-1, 3Morpholinosydnone imine hydrochloride, reference compound] | 1000 | 80
